Experimental data reported in patent publication US7553838B2, “Mitotic kinesin inhibitors” (Merck & Co. Inc., priority 2004, dated 2009).

Molecular target: T1, human poly-histidine tagged KSP motor domain (KSP(367H)) (Homo sapiens, UniProt P52732)
T1 construct: were used to amplify the motor domain and the neck linker region; made in house; host or cells: E. coli BL21 (DE3), pRSETa
T1 sequence (P52732 18-359 limits assumed): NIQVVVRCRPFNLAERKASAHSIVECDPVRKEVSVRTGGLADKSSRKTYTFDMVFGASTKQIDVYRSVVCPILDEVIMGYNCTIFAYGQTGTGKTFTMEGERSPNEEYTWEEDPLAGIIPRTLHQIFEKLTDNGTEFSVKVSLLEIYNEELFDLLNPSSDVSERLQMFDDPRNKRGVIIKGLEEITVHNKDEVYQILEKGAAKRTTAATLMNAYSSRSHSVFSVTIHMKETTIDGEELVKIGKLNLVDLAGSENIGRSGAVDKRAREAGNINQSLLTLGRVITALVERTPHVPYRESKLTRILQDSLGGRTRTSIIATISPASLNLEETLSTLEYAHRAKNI
Test: Kinesin ATPase In Vitro Assay
Format: biochemical
Conditions: microtubules, 1 mM ATP, 23° C.; free phosphate by quinaldine red/ammonium molybdate
Excerpt: I. Kinesin ATPase In Vitro Assay
Cloning and expression of human poly-histidine tagged KSP motor domain (KSP(367H))
Plasmids for the expression of the human KSP motor domain construct were cloned by PCR using a pBluescript full length human KSP construct (Blangy et al., Cell, vol. 83, pp 1159-1169, 1995) as a template. The N-terminal primer 5′-[…] (SEQ.ID.NO.: 1) and the C-terminal primer 5′-[…] […] (SEQ.ID.NO.: 2) were used to amplify the motor domain and the neck linker region. The PCR products were digested with AseI and XhoI, ligated into the NdeI/XhoI digestion product of pRSETa (Invitrogen) and transformed into E. coli BL21 (DE3).
Cells were grown at 37° C. to an OD600 of 0.5. […]
The kinesin motor domain is incubated with microtubules, 1 mM ATP (1:1 MgCl2: Na-ATP), and compound at 23° C. in buffer containing 80 mM K-HEPES (pH 7.0), 1 mM EGTA, 1 mM DTT, 1 mM MgCl2, and 50 mM KCl. […] Free phosphate from the ATP hydrolysis reaction is measured via a quinaldine red/ammonium molybdate assay by adding 150 μl of quench C buffer containing a 2:1 ratio of quench A:quench B. Quench A contains 0.1 mg/ml quinaldine red and 0.14% polyvinyl alcohol; quench B contains 12.3 mM ammonium molybdate tetrahydrate in 1.15 M sulfuric acid. The reaction is incubated for 10 minutes at 23° C., and the absorbance of the phospho-molybdate complex is measured at 540 nm.

- IC50: ≤ 50 µM
SMILES: CC(C(=O)N1N=C(c2cc(F)ccc2F)CC1(CO)c1ccccc1)N1CCN(C)CC1 (racemic) [Compound 3-4, {3-(2,5-difluorophenyl)-1-[2-(4-methylpiperazin-1-yl)propanoyl]-5-phenyl-4,5-dihydro-1H-pyrazol-5-yl}methanol]
